Common to all, as to assay type: cell-based
For experiment [1], the target named is T1, A3-YFP (Homo sapiens, UniProt P0DMS8).
T1 construct: cDNA encoding the full length human A3 receptor; expressed in transfected cells
T1 sequence (P0DMS8 1-318): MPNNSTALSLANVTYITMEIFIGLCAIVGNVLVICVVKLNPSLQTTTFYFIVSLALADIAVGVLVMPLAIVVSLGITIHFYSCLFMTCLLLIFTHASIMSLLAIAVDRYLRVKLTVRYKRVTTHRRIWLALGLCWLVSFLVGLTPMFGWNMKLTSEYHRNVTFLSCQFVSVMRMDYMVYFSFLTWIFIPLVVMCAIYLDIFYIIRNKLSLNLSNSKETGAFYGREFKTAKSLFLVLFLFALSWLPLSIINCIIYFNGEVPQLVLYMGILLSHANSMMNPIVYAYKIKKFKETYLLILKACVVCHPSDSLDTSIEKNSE
Briefly: [3H]-cAMP accumulation assay, A3-YFP. The settings on record: for Emax: read-out: Maximum response (% inhibition of 3 μM FSK), cAMP accumulation assay, A3-YFP cells, 1 h stimulation. On the procedure: On the day of analysis, cells were labelled with [^3H]-adenine (2 μCi·mL^−1) in a total volume of 600 μL per well for 2 h at 37°C/5% CO2 in normal growth medium. After 2 h, the [^3H]-adenine-containing medium was removed; cells washed once in serum-free medium and fresh serum-free medium, containing 10 μM rolipram, added. The required concentration of agonist was added to the appropriate well and cells incubated for 10 min at 37°C. After 10 min, 10 μM FSK was added to all wells, apart from basal wells, and cells were incubated for a further 1 h at 37°C. The assay was terminated by the addition of 50 μL concentrated HCl to each well. The levels of [^3H]-cAMP incorporated were measured by sequential Dowex and alumina chromatography and the efficiency of each column was determined by the recovery of [^14C]-cAMP as described by Donaldson et al. ([1988]).
(§1) A basal and FSK control was included in each separate concentration-response CRE-SPAP gene transcription assay and cAMP accumulation assay to allow the responses in each cell line to be expressed as an inhibition of FSK-stimulated SPAP production.
For orientation: Cyclic AMP is a second messenger, typically raised through Gs and lowered through Gi signalling.

For experiment [2], the target named is T1, A3-YFP. As to the kind of experiment: ERK1/2 phosphorylation assay (AlphaScreen SureFire), A3-YFP. The settings on record: for Emax: read-out: Maximum response (% 10 μM NECA), pERK1/2 assay. As to the method: Normal growth medium was replaced with serum-free medium for at least 4 h before analysis. Levels of ERK1/2 phosphorylation were measured using the AlphaScreen SureFire p-ERK assay kit (PerkinElmer). […] Medium was removed from each well and replaced with 40 μL SureFire lysis buffer. After shaking for 5 min, a 1:80:20:120 v v^−1 dilution of AlphaScreen beads : lysate : activation buffer : reaction buffer in a 5.5 μL total volume was transferred to a white opaque 384-well proxiplate in diminished light. After 2 h of incubation in the dark at room temperature, the fluorescence signal was measured with an EnVision plate reader (PerkinElmer) using standard AlphaScreen settings.
as §1
(In general: In Alpha technology, singlet oxygen from a donor bead excites a nearby acceptor bead.)

For experiment [3], the target named is T1, A3-YFP. Briefly: Confocal imaging of receptor internalization and membrane YFP fluorescence, A3-YFP. The settings on record: A3-YFP cells, 10 μM agonist. As to the method: Live-cell BiFC imaging was performed on A3-vYc/β-arrestin2-vYnL and A3 W243F-vYc/β-arrestin2-vYnL cells grown in Nunc Labtek 8-well plates, and images obtained using a Zeiss 710 confocal microscope (Carl Zeiss GmbH, Jena, Germany) fitted with a 63× plan-Apochromat NA1.4 Ph3 oil-immersion objective. Live-cell imaging analysis was performed on A3-YFP or A3 W243F-YFP CRE-SPAP cells and transiently expressed SNAP-A3 or SNAP-A3 W243F grown in Nunc Labtek 8-well plates, and images obtained using a Zeiss LSM5 Exciter confocal microscope (Carl Zeiss GmbH) fitted with a 63× plan-Apochromat NA1.4 DIC oil-immersion objective. For both YFP, BiFC and BG-AF488 label, a 488 nm argon laser was used to excite the fluorophore and emission was detected using a BP505-530 filter. Cells expressing the SNAP-tagged receptors were labelled with 1 μM SNAP-surface BG-AF488 (New England Biolabs) in DMEM/F12 medium for 30 min at 37°C/5% CO2. Before all imaging experiments, normal growth medium or medium containing BG-AF488 was removed and cells were washed twice in HEPES-buffered saline solution (HBSS; 25 mM HEPES, 10 mM glucose, 146 mM NaCl, 5 mM KCl, 1 mM MgSO4, 2 mM sodium pyruvate, 1.3 mM CaCl2) and fresh HBSS was added for analysis. […] Images of A3-YFP and A3 W243F-YFP cells were taken with same pinhole diameter, laser power, gain and offset to allow comparison of YFP fluorescence. To obtain fluorescence intensity values, a region of interest was drawn around the plasma membrane of 10 cells per image in Zeiss AIM 4.2 software (Carl Zeiss GmbH).

As to `CCNC(=O)[C@H]1O[C@@H](n2cnc3c(N)ncnc32)[C@H](O)[C@@H]1O` [NECA, 5-(N-ethylcarboxamido)adenosine], in experiment [1], the Emax came to 77.5 ± 6.9%. Besides, the Emax in experiment [2] worked out at 100%. Besides, in experiment [3], the “internalization of the receptor seen in confocal images” value is given as “rapid internalization” and the “reduction in membrane fluorescence” value is given as 50%.

On to `CCCCC#Cc1nc(NC)c2ncn([C@@H]3O[C@H](CO)[C@@H](O)[C@H]3O)c2n1` [HEMADO, 2-(1-hexynyl)-N-methyladenosine], for which the Emax in experiment [1] was determined as 80 ± 5.1%; in experiment [2], 120 ± 5.8%. For the same compound, the EC50 in experiment [1] (read-out: pEC50 (cAMP accumulation assay) (converted)) is 2.4 nM; in experiment [2] (A3-YFP cells, 5 min stimulation, read-out: pEC50 (pERK1/2 assay) (converted)), 1.91 nM. Besides, in experiment [3], the “internalization of the receptor seen in confocal images” value is “substantial internalization”. Moreover, in experiment [3], the “reduction in membrane fluorescence” value came out at 50%.

Source of the values: article PMC4128046, “Effect of a toggle switch mutation in TM6 of the human adenosine A3 receptor on Gi protein-dependent signalling and Gi-independent receptor internalization” (British Journal of Pharmacology, 2014).
